# Measurements as given in patent US20100028889A1, “COMPANION DIAGNOSTIC ASSAYS FOR CANCER THERAPY” (ABBOTT LABORATORIES, priority 2006, published 2010).
# Like-named read-outs stand apart in the source and are kept apart here.
# Key:
# [1] = test system: DMS153; test: cell cytotoxicity EC50, CellTiter Glo, SCLC cell line; type: cell-based, human
# Method: (§1) The SCLC and leukemia/lymphoma cell lines listed below were obtained from the American Type Culture Collection (Manassas, Va.), Deutsche Sammlung von Mikroorganismen und Zellkulturen (DSMZ, Braunsweig, Germany), or were the generous gift from Dr. Louis Staudt (National Cancer Institute) and were cultured as described in Tse, C., Shoemaker, A. R., Adickes, J., et al., “ABT-263: a potent and orally bioavailable Bcl-2 family inhibitor,” Cancer Res 2008; 68: 3421-3428; and Tahir, S. K., Yang, X., Anderson, M. G., et al., “Influence of Bcl-2 family members on the cellular response of small-cell lung cancer cell lines to ABT-737,” Cancer Res 2007; 67: 1176-1183.
# (§2) Cells were treated at 10,000 or 50,000 cells per well for adherent or suspension cells, respectively, in 96-well microtiter plates in the presence of 10% human serum for 48 hours with or without ABT-263, in a humidified chamber with 5% CO2. ABT-263 was synthesized as previously described in Tse, C., Shoemaker, A. R., Adickes, J., et al., “ABT-263: a potent and orally bioavailable Bcl-2 family inhibitor,” Cancer Res 2008; 68: 3421-3428; and Oltersdorf, T., Elmore, S. W., Shoemaker, A. R., et al., “An inhibitor of Bcl-2 family proteins induces regression of solid tumours,” Nature 2005; 435: 677-681, and cell cytotoxicity EC50 values were assessed using CellTiter Glo (Promega, Madison Wis.).
# [2] = test system: DMS79; test: as above; type: cell-based, human
# Method: as §1, §2
# [3] = test system: H69AR; test: as above; type: cell-based, human
# Method: as §1, §2
# [4] = test system: NCI-1048; test: as above; type: cell-based, human
# Method: as §1, §2
# [5] = test system: NCI-H1105; test: as above; type: cell-based, human
# Method: as §1, §2
# [6] = test system: NCI-H1436; test: as above; type: cell-based, human
# Method: as §1, §2
# [7] = test system: NCI-H1618; test: as above; type: cell-based, human
# Method: as §1, §2
# [8] = test system: NCI-H1672; test: as above; type: cell-based, human
# Method: as §1, §2
# [9] = test system: NCI-H1836; test: as above; type: cell-based, human
# Method: as §1, §2
# [10] = test system: NCI-H187; test: as above; type: cell-based, human
# Method: as §1, §2
# [11] = test system: NCI-H1930; test: as above; type: cell-based, human
# Method: as §1, §2
# [12] = test system: NCI-H1963; test: as above; type: cell-based, human
# Method: as §1, §2
# [13] = test system: NCI-H2081; test: as above; type: cell-based, human
# Method: as §1, §2
# [14] = test system: NCI-H378; test: as above; type: cell-based, human
# Method: as §1, §2
# [15] = test system: NCI-H510; test: as above; type: cell-based, human
# Method: as §1, §2
# [16] = test system: NCI-H524; test: as above; type: cell-based, human
# Method: as §1, §2
# [17] = test system: NCI-H69; test: as above; type: cell-based, human
# Method: as §1, §2
# [18] = test system: NCI-H82; test: as above; type: cell-based, human
# Method: as §1, §2
# [19] = test system: NCI-H847; test: as above; type: cell-based, human
# Method: as §1, §2
# [20] = test system: SHP-77; test: as above; type: cell-based, human
# Method: as §1, §2
# [21] = test system: Granta; test: cell cytotoxicity EC50, CellTiter Glo, Mantle Cell Lymphoma cell line; type: cell-based, human
# Method: as §1, §2
# [22] = test system: HBL-2; test: as above; type: cell-based, human
# Method: as §1, §2
# [23] = test system: JVM-13; test: as above; type: cell-based, human
# Method: as §1, §2
# [24] = test system: JVM-2; test: as above; type: cell-based, human
# Method: as §1, §2
# [25] = test system: JeKo-1; test: as above; type: cell-based, human
# Method: as §1, §2
# [26] = test system: Mino; test: as above; type: cell-based, human
# Method: as §1, §2
# [27] = test system: SP53; test: as above; type: cell-based, human
# Method: as §1, §2
# [28] = test system: Rec-1; test: cell cytotoxicity EC50, CellTiter Glo, Mantle Cell Lymphoma cell line, Rec-1 sub-clone batch listed first; type: cell-based, human
# Method: as §1, §2
# [29] = test system: solid tumors; details: in vivo; cited from earlier work
# [30] = 10% human serum, 48 hours, read-out: EC50
# [31] = Homo sapiens, read-out: Response Designation
smiles,measurement,setting,value
"CC1(C)CCC(c2ccc(Cl)cc2)=C(CN2CCN(c3ccc(C(=O)NS(=O)(=O)c4ccc(N[C@H](CCN5CCOCC5)CSc5ccccc5)c(S(=O)(=O)C(F)(F)F)c4)cc3)CC2)C1 [ABT-263, N-(4-(4-((2-(4-chlorophenyl)-5,5-dimethyl-1-cyclohex-1-en-1-yl)methyl)piperazin-1-yl)benzoyl)-4-(((1R)-3-(morpholin-4-yl)-1-((phenylsulfanyl)methyl)propyl)amino)-3-((trifluoromethyl)sulfonyl)benzenesulfonamide]",EC50,"[1]; DMS-153, 10% human serum, 48 hours, read-out: EC50",11 µM
same,EC50,"[1]; Homo sapiens, DMS-153, read-out: Response Designation",> 4.1 µM
same,EC50,"[2]; DMS-79, 10% human serum, 48 hours, read-out: EC50",1900 nM
same,EC50,"[2]; Homo sapiens, DMS-79, read-out: Response Designation",≤ 4100 nM
same,EC50,[3]; [30],22.3 µM
same,EC50,[3]; [31],> 4.1 µM
same,EC50,[4]; [30],2860 nM
same,EC50,[4]; [31],≤ 4100 nM
same,EC50,[5]; [30],700 nM
same,EC50,[5]; [31],≤ 4100 nM
same,EC50,[6]; [30],1000 nM
same,EC50,[6]; [31],≤ 4100 nM
same,EC50,[7]; [30],1400 nM
same,EC50,[7]; [31],≤ 4100 nM
same,EC50,[8]; [30],700 nM
same,EC50,[8]; [31],≤ 4100 nM
same,EC50,[9]; [30],400 nM
same,EC50,[9]; [31],≤ 4100 nM
same,EC50,[10]; [30],210 nM
same,EC50,[10]; [31],≤ 4100 nM
same,EC50,[11]; [30],3000 nM
same,EC50,[11]; [31],≤ 4100 nM
same,EC50,[12]; [30],180 nM
same,EC50,[12]; [31],≤ 4100 nM
same,EC50,[13]; [30],12 µM
same,EC50,[13]; [31],> 4.1 µM
same,EC50,[14]; [30],> 50 µM
same,EC50,[14]; [31],> 4.1 µM
same,EC50,[15]; [30],1220 nM
same,EC50,[15]; [31],≤ 4100 nM
same,EC50,[16]; [30],80 nM
same,EC50,[16]; [31],≤ 4100 nM
same,EC50,[17]; [30],710 nM
same,EC50,[17]; [31],≤ 4100 nM
same,EC50,[18]; [30],22.4 µM
same,EC50,[18]; [31],> 4.1 µM
same,EC50,[19]; [30],60 nM
same,EC50,[19]; [31],≤ 4100 nM
same,EC50,"[20]; Homo sapiens, SHP77, read-out: Response Designation",≤ 4.1 µM
same,EC50,"[20]; SHP77, 10% human serum, 48 hours, read-out: EC50",3.9 µM
same,EC50,[21]; [30],41 nM
same,EC50,[21]; [31],≤ 4800 nM
same,EC50,"[22]; HBL2, 10% human serum, 48 hours, read-out: EC50",31 nM
same,EC50,"[22]; Homo sapiens, HBL2, read-out: Response Designation",≤ 4800 nM
same,EC50,"[23]; Homo sapiens, JVM13, read-out: Response Designation",> 4.8 µM
same,EC50,"[23]; JVM13, 10% human serum, 48 hours, read-out: EC50",13 µM
same,EC50,[24]; [30],4.11 µM
same,EC50,[24]; [31],≤ 4.8 µM
same,EC50,[25]; [30],1740 nM
same,EC50,[25]; [31],≤ 4800 nM
same,EC50,"[26]; Homo sapiens, MINO, read-out: Response Designation",≤ 4800 nM
same,EC50,"[26]; Mino, 10% human serum, 48 hours, read-out: EC50",33 nM
same,EC50,[27]; [30],140 nM
same,EC50,[27]; [31],≤ 4800 nM
same,EC50,"[28]; Homo sapiens, Rec1, read-out: Response Designation",≤ 4800 nM
same,EC50,"[28]; Rec1, 10% human serum, 48 hours, read-out: EC50",34 nM
"CN(C)CC[C@H](CSc1ccccc1)Nc1ccc(S(=O)(=O)NC(=O)c2ccc(N3CCN(Cc4ccccc4-c4ccc(Cl)cc4)CC3)cc2)cc1[N+](=O)[O-] [ABT-737, N-(4-(4-((4′-chloro(1,1′-biphenyl)-2-yl)methyl)piperazin-1-yl)benzoyl)-4-(((1R)-3-(dimethylamino)-1-((phenylsulfanyl)methyl)propyl)amino)-3-nitrobenzenesulfonamide]",effect on solid tumors,[29],induce regression of solid tumors
